What was measured:
[1] = test system: Rat basophilic leukemia cells (RBL-2H3); assay: MTT cell survival rate of RBL-2H3; type: cell-based; conditions: positive control group, concentration not given; RBL-2H3, MTT
Experimental: (§1) Rat basophilic leukemia cells (RBL-2H3) is seeded in a 96-well cell culture plate, with each well containing 5*10^4 cells. Cells are incubated in a 37-degree Celsius incubator with 5% CO2 overnight to allow attachment to the culture plate. Replace the culture medium with culture medium containing the care composition (hereinafter referred to as AMDS) of different dilution rates (1/1600, 1/800, 1/400, 1/200, and 1/100) and control groups (a blank control group and a positive control group, which is incubated in culture medium containing quercetin). After 30 minutes of incubation, A23187 (1 μg/mL) is added and allowed reaction for an hour. β-hexosaminidase level is analyzed by applying cell culture supernatant to enzyme-linked immunosorbent assay (ELISA). Replace the culture medium with that containing MTT (0.5 mg/mL), followed with 2-hour incubation. Discard the MTT-medium solution, and add DMSO (150 μL/well) to each well. Let sit in room temperature for 10 minutes, allowing the purple formazan to fully dissolve. The cell survival rate is calculated and determined by detecting the optical density (O.D.) at wavelength 570 in a spectrophotometer. Cell survival rate (%)=(sample OD570/blank control group OD570)*100%. […] The lower the β-hexosaminidase, the greater the anti-allergy effect. […]

[2] = test system: Rat basophilic leukemia cells (RBL-2H3); assay: β-hexosaminidase level (ELISA) in A23187-stimulated RBL-2H3 cells, anti-allergy effect; type: cell-based; conditions: positive control group, concentration not given; RBL-2H3, A23187 1 μg/mL; blank control = 100
Experimental: as §1

Question: With O=c1c(O)c(-c2ccc(O)c(O)c2)oc2cc(O)cc(O)c12 [quercetin] as the compound, how does the “Cell survival rate (%)” value [1] read?
Answer: 87.97%

Question: And the “β-hexosaminidase (%)” value [2]?
Answer: 1.8%

Source: patent publication US12409201B2, “Care composition and use thereof” (priority 2020, dated 2025)
